This is an account of results in patent publication US20220023281A1, “HETEROCYCLIC SPIRO-COMPOUNDS AS AM2 RECEPTOR INHIBITORS” (THE UNIVERSITY OF SHEFFIELD, priority 2018, published 2022).

The target in this experiment is T1, AM2 receptor-expressing cells (1321N1 cells transfected with CALCRL+RAMP3) (Homo sapiens, UniProt O60896+Q16602).
T1 construct: host or cells: 1321N1 cells
T1 sequence (Q16602 23-461): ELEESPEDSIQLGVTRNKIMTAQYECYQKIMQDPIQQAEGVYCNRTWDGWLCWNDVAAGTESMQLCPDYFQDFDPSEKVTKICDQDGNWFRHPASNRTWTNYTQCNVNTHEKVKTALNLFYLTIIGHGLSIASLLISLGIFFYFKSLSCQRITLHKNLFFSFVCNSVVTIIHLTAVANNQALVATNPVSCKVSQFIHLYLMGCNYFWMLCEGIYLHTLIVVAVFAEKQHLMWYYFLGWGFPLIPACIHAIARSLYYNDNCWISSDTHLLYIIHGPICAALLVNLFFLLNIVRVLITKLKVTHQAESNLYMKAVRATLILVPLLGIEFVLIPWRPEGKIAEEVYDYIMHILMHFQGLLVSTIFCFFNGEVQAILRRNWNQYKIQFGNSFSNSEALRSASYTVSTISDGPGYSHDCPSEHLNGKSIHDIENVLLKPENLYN
T1 sequence (O60896 24-148): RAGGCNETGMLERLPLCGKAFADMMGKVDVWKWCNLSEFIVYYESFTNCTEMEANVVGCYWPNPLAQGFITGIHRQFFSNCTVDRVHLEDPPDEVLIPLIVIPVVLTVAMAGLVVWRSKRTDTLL
Briefly: AM2 receptor inhibition, LANCE cAMP agonist-antagonist competition assay (AM2 D2 protocol). The class given is cell-based. Particulars: inhibition of AM induced cAMP in 1321N1 cells expressing CALCRL+RAMP3; read-out: AM2 D2 protocol: pIC50 (converted). The procedure: Compounds were assessed for their ability to inhibit ligand-induced elevations of cAMP, using the Perkin Elmer LANCE cAMP assay using commercially-available cells expressing a specific receptor of interest using the following general procedure:
Compounds were prepared in dimethyl sulfoxide (DMSO—99.9% pure) (Sigma Aldrich, Cat #: D4540) added to powder stocks to produce a 20 mM solution (100% DMSO) that was sonicated at 37° C. for 10 minutes to fully dissolve the compounds. The 20 mM stocks were diluted further in DMSO to produce a 2 mM solution that was sonicated at 37° C. for 10 minutes. 2 mM stocks were dissolved in assay/stimulation buffer to produce a 400 μM solution that was sonicated at 37° C. for 10 minutes for all cAMP assays. All stocks were stored at −20° C. Then serial dilution (Dilution factor: 10) was performed to achieve the desire experimental concentrations.
Competition assays were performed according to the manufactures instructions using LANCE® TR-FRET cAMP assay kit (Perkin Elmer, Cat #: AD0264). Serial dilutions (3 μl/well) of the molecules were plated in a 384-well OptiPlate (Perkin Elmer, Cat #: 6007299) in duplicates. Appropriate controls (100% stimulation: Forskolin and 0% stimulation: Vehicle control) (6 μl/well) were included in each plate for data normalization. Following the compound addition, 6 μl of G-protein coupled receptor overexpressing cells/Alexa Fluor antibody solution (1:100 dilution) was added in each well at a desired density of 2500 cells/well. The overexpressing cell lines were purchased from DiscoveRx, Birmingham, UK. After spinning the plate at 1000 rpm for 1 minute and vortexing briefly, the cells were pre-incubated with the compounds for 30 minutes at room temperature (covered). Then 3 μl of the equivalent peptide ligand (EC50 dose) was added to all the wells except vehicle and forskolin controls. The plate were then spun down at 1000 rpm for 1 minute and once finished they were vortexed briefly and covered. Cells were stimulated in the presence of the ligands for 15 minutes at room temperature. After stimulation 12 μl of detection mix (Europium-Chelate streptavidin/biotinylated cAMP tracer solution) was added to all wells and incubated for 60 minutes at room temperature. The plate was then read on the Enspire multimode Plate reader (Perkin Elmer), at; 320/340 nm excitation and 615/665 nm emission was recorded.
Assay/Stimulation Buffer (30 mL)—pH 7.4 • 28 mL Hank's Balanced salt solution (+MgCl2, +CaCl2))—(Thermo Fisher Cat #:14170112) • 150 μl HEPES (1M)—(Thermo Fisher Cat #:15630080) • 400 μl Stabilizer (DTPA) Purified BSA (7.5%)—(Perkin Elmer, Cat #: CR84-100) • 60 μl IBMX (250 mM)—(Sigma Aldrich, Cat #: 15879)
The ability of a compound to inhibit the AM induced cAMP activation in AM2 receptor-expressing cells (1321N1 cells transfected with CALCRL+RAMP3, sourced from DiscoverX catalogue number 95-0169C6) was assessed using the protocol above.
Turning to `CC1(C(=O)N(CC(=O)Nc2ccc3c(c2)C[C@@]2(C3)C(=O)Nc3ncccc32)[C@H]2CCCNC2)CCNCC1` [Example 15, 4-Methyl-N-(2-oxo-2-(((R)-2′-oxo-1,1′,2′,3-tetrahydrospiro[indene-2,3′-pyrrolo[2,3-b]pyridin]-5-yl)amino)ethyl)-N—((S)-piperidin-3-yl)piperidine-4-carboxamide], the IC50 was 50.1 nM.
Under `CC(=O)N1CCC(C)(C(=O)N(CC(=O)Nc2ccc3c(c2)C[C@@]2(C3)C(=O)Nc3ncccc32)[C@H]2CCCNC2)CC1` [Example 16, 1-Acetyl-4-methyl-N-(2-oxo-2-(((R)-2′-oxo-1,1′,2′,3-tetrahydrospiro[indene-2,3′-pyrrolo[2,3-b]pyridin]-5-yl)amino)ethyl)-N—((S)-piperidin-3-yl)piperidine-4-carboxamide] stands 112 nM; under `CC1(C(=O)N(CC(=O)Nc2ccc3c(c2)C[C@@]2(C3)C(=O)Nc3ncccc32)[C@H]2CCCNC2)CCN(C(=O)c2ccccn2)CC1` [Example 17, 4-Methyl-N-(2-oxo-2-(((R)-2′-oxo-1,1′,2′,3-tetrahydrospiro[indene-2,3′-pyrrolo[2,3-b]pyridin]-5-yl)amino)ethyl)-1-picolinoyl-N—((S)-piperidin-3-yl)piperidine-4-carboxamide], 18.6 nM.
With `CC1(C(=O)N(CC(=O)Nc2ccc3c(c2)C[C@@]2(C3)C(=O)Nc3ncccc32)[C@H]2CCCNC2)CCN(C(=O)CN2CCNCC2)CC1` [Example 18, 4-Methyl-N-(2-oxo-2-(((R)-2′-oxo-1,1′,2′,3-tetrahydrospiro[indene-2,3′-pyrrolo[2,3-b]pyridin]-5-yl)amino)ethyl)-1-(2-(piperazin-1-yl)acetyl)-N—((S)-piperidin-3-yl)piperidine-4-carboxamide], the IC50 was 67.6 nM.
As for `CCC1(C(=O)N(CC(=O)Nc2ccc3c(c2)C[C@@]2(C3)C(=O)Nc3ncccc32)[C@H]2CCCNC2)CCN(C(C)=O)CC1` [Example 19, 1-Acetyl-4-ethyl-N-(2-oxo-2-(((R)-2′-oxo-1,1′,2′,3-tetrahydrospiro[indene-2,3′-pyrrolo[2,3-b]pyridin]-5-yl)amino)ethyl)-N—((S)-piperidin-3-yl)piperidine-4-carboxamide], the figure is 14.1 nM; as for `CNC(=O)N1CCC(C)(C(=O)N(CC(=O)Nc2ccc3c(c2)C[C@@]2(C3)C(=O)Nc3ncccc32)[C@H]2CCCNC2)CC1` [Example 20, N1,4-Dimethyl-N4-[2-oxo-2-[[(3R)-2-oxospiro[1H-pyrrolo[2,3-b]pyridine-3,2′-indane]-5′-yl]amino]ethyl]-N4-[(3S)-3-piperidyl]piperidine-1,4-dicarboxamide], 56.2 nM.
As to `CC1(C(=O)N(CC(=O)Nc2ccc3c(c2)C[C@@]2(C3)C(=O)Nc3ncccc32)[C@H]2CCCNC2)CCN(C(=O)N2CCCC2)CC1` [Example 21, 4-Methyl-N-(2-oxo-2-(((R)-2′-oxo-1,1′,2′,3-tetrahydrospiro[indene-2,3′-pyrrolo[2,3-b]pyridin]-5-yl)amino)ethyl)-N—((S)-piperidin-3-yl)-1-(pyrrolidine-1-carbonyl)piperidine-4-carboxamide], the IC50 was 27.5 nM.
Under `O=C(CN(C(=O)N1CCCC1)[C@H]1CCCNC1)Nc1ccc2c(c1)C[C@@]1(C2)C(=O)Nc2ncccc21` [Example 22, N-(2-Oxo-2-(((R)-2′-oxo-1,1′,2′,3-tetrahydrospiro[indene-2,3′-pyrrolo [2,3-b]pyridin]-5-yl)amino)ethyl)-N—((S)-piperidin-3-yl)pyrrolidine-1-carboxamide] stands 245 nM; under `CC(=O)N1CCN(C(=O)N(CC(=O)Nc2ccc3c(c2)C[C@@]2(C3)C(=O)Nc3ncccc32)[C@H]2CCCNC2)CC1` [Example 23, 4-Acetyl-N-(2-oxo-2-(((R)-2′-oxo-1,1′,2′,3-tetrahydrospiro[indene-2,3′-pyrrolo[2,3-b]pyridin]-5-yl)amino)ethyl)-N—((S)-piperidin-3-yl)piperazine-1-carboxamide], 2880 nM; under `CC(C)(C)C(=O)N(CC(=O)Nc1ccc2c(c1)CC1(C2)C(=O)Nc2ncccc21)[C@H]1CCNC1` (stereo partly drawn) [Example 24, N-(2-Oxo-2-((2′-oxo-1,1′,2′,3-tetrahydrospiro[indene-2,3′-pyrrolo[2,3-b]pyridin]-5-yl)amino)ethyl)-N—((S)-pyrrolidin-3-yl)pivalamide], 132 nM.
Under `CC(C)(C)C(=O)N(CC(=O)Nc1ccc2c(c1)CC1(C2)C(=O)Nc2ncccc21)C1CCCCNC1` (stereo not shown) [Example 25, N-(Azepan-3-yl)-N-(2-oxo-2-((2′-oxo-1,1′,2′,3-tetrahydrospiro[indene-2,3′-pyrrolo[2,3-b]pyridin]-5-yl)amino)ethyl)pivalamide] stands 129 nM; under `CC(C)(C)C(=O)N(CC(=O)Nc1ccc2c(c1)CC1(C2)C(=O)Nc2ncccc21)C1CCCNCC1` (stereo not shown) [Example 26, N-(Azepan-4-yl)-N-(2-oxo-2-((2′-oxo-1,1′,2′,3-tetrahydrospiro[indene-2,3′-pyrrolo[2,3-b]pyridin]-5-yl)amino)ethyl)pivalamide], 479 nM.
Under `CC(C)(C)C(=O)N(CC(=O)Nc1ccc2c(c1)C[C@@]1(C2)C(=O)Nc2ncccc21)C1CC2CNC1C2` (stereo partly drawn) [Example 30, N-(2-Azabicyclo[2.2.1]heptan-6-yl)-N-(2-oxo-2-(((R)-2′-oxo-1,1′,2′,3-tetrahydrospiro[indene-2,3′-pyrrolo[2,3-b]pyridin]-5-yl)amino)ethyl)pivalamide] stands 3020 nM.
